Results: patent US20110098177A1, “METHODS AND COMPOSITIONS OF PLANT MICRONUTRIENTS” (NOVUS INTERNATIONAL INC., priority 2006, published 2011)

Tests used:
Assay type in all cases: in vivo
[1] = test system: Tygress tomato plants; test: Foliar nutrient concentration 2 weeks after treatment, greenhouse tomato (Examples 4-6); details: for B concentration in tomato leaves / Ca concentration in tomato leaves / Cu concentration in tomato leaves / Fe concentration in tomato leaves / K concentration in tomato leaves / Mg concentration in tomato leaves / Mn concentration in tomato leaves / N concentration in tomato leaves / P concentration in tomato leaves: 2 weeks after treatment
Procedure: (§1) The following experiments were performed in a green house during the fall of 2008 and spring of 2009 at GCREC, Balm, University of Florida. Crop set-up, procedures and variables were as follows.
(§2) Transplants of Tygress' tomato plants were planted in 2-gallon pots filled with commercial planting medium with nutrient concentration of Fe, Zn, Mn, Cu being negligible and insufficient for crop growth. Irrigation and non-micronutrient fertilizer were provided daily through microsprinklers at recommended rates for tomato production in Florida. No pesticides were used. Treatments were as described in Tables 4, 5 and 6 below.
(§3) Treatments were applied at 5 WAT (weeks after transplanting) using a water volume of 200 mL/plant. A non-ionic surfactant was added. Foliar tissue analysis was performed at 3 and 7 WAT on the non-applied newest leaves. The concentrations of N, P, K, Mg, Ca, B, Zn, Mn, Fe, and Cu in the foliar tissue were determined from foliar analysis by a commercial laboratory at 2 weeks before treatment and again at 2 weeks after treatment.
(§4) Deionized water was used for foliar applications, and other nutrients were applied as appropriate under non-limiting conditions. Marketable fruit were collected three times during the growing season, starting at 10 WAT (5 weeks after the initial treatment). Tomato fruit was graded as extra-large, large and medium. Non-marketable fruit were harvested and number and weight recorded but not sized.
(§5) Experimental design was a randomized complete block design with 6 replications. Data were analyzed using a general linear model, and means were separated using an LSD test at the 5% significance level.

[2] = test system: Tygress tomato plants; test: Yields of tomato fruits, greenhouse (Examples 4-6); details: for Marketable yield: tomato fruits
Procedure: as §1, §2, §3, §4, §5

[3] = test system: Tygress tomato plants; test: Plant injury observed after BIOX-A foliar application, greenhouse tomato (Example 6); details: BIOX-A at concentrations of 2.86 or higher
Procedure: The following experiments were performed in a green house during the fall of 2008 and spring of 2009 at GCREC, Balm, University of Florida. Crop set-up, procedures and variables were as follows. […] Irrigation and non-micronutrient fertilizer were provided daily through microsprinklers at recommended rates for tomato production in Florida. No pesticides were used. Treatments were as described in Tables 4, 5 and 6 below. […] Treatments were applied at 5 WAT (weeks after transplanting) using a water volume of 200 mL/plant. A non-ionic surfactant was added. […] There were no significant differences between the foliar nutrient concentration of the leaves of any of the treatment groups prior to treatment.

`CSCCC(O)C(=O)O` (stereo not shown) [BIOX-A, 2-hydroxy-4(methylthio)butanoic acid] was tested, and the “B concentration in tomato leaves” value ([1]; BIOX-A 0.69 lb/acre) was 27 ppm, the “Ca concentration in tomato leaves” value ([1]; BIOX-A 0.69 lb/acre) was 0.5% and the “Cu concentration in tomato leaves” value ([1]; BIOX-A 0.69 lb/acre) was 29 ppm. The “Fe concentration in tomato leaves” value ([1]; BIOX-A 0.69 lb/acre) was 85 ppm, the “K concentration in tomato leaves” value ([1]; BIOX-A 0.69 lb/acre) was 3.2% and the “Mg concentration in tomato leaves” value ([1]; BIOX-A 0.69 lb/acre) was 0.3%. For the same compound, the “Mn concentration in tomato leaves” value ([1]; BIOX-A 0.69 lb/acre) was 56 ppm, the “N concentration in tomato leaves” value ([1]; BIOX-A 0.69 lb/acre) was 3.4% and the “P concentration in tomato leaves” value ([1]; BIOX-A 0.69 lb/acre) was 0.6%. For the same compound, the “B concentration in tomato leaves” value ([1]; BIOX-A 1.37 lb/acre) was 28 ppm, the “Ca concentration in tomato leaves” value ([1]; BIOX-A 1.37 lb/acre) was 0.6% and the “Cu concentration in tomato leaves” value ([1]; BIOX-A 1.37 lb/acre) was 31 ppm. For the same compound, the “Fe concentration in tomato leaves” value ([1]; BIOX-A 1.37 lb/acre) was 88 ppm, the “K concentration in tomato leaves” value ([1]; BIOX-A 1.37 lb/acre) was 3.4% and the “Mg concentration in tomato leaves” value ([1]; BIOX-A 1.37 lb/acre) was 0.3%. For the same compound, the “Mn concentration in tomato leaves” value ([1]; BIOX-A 1.37 lb/acre) was 55 ppm, the “N concentration in tomato leaves” value ([1]; BIOX-A 1.37 lb/acre) was 3.7% and the “P concentration in tomato leaves” value ([1]; BIOX-A 1.37 lb/acre) was 0.4%. The “B concentration in tomato leaves” value ([1]; BIOX-A 2.86 lb/acre) was 28 ppm, the “Ca concentration in tomato leaves” value ([1]; BIOX-A 2.86 lb/acre) was 0.6% and the “Cu concentration in tomato leaves” value ([1]; BIOX-A 2.86 lb/acre) was 50 ppm. For the same compound, the “Fe concentration in tomato leaves” value ([1]; BIOX-A 2.86 lb/acre) was 87 ppm, the “K concentration in tomato leaves” value ([1]; BIOX-A 2.86 lb/acre) was 3.3% and the “Mg concentration in tomato leaves” value ([1]; BIOX-A 2.86 lb/acre) was 0.1%. The “Mn concentration in tomato leaves” value ([1]; BIOX-A 2.86 lb/acre) was 54 ppm, the “N concentration in tomato leaves” value ([1]; BIOX-A 2.86 lb/acre) was 3.1% and the “P concentration in tomato leaves” value ([1]; BIOX-A 2.86 lb/acre) was 0.4%. The “B concentration in tomato leaves” value ([1]; BIOX-A 5.52 lb/acre) was 24 ppm, the “Ca concentration in tomato leaves” value ([1]; BIOX-A 5.52 lb/acre) was 0.6% and the “Cu concentration in tomato leaves” value ([1]; BIOX-A 5.52 lb/acre) was 28 ppm. For the same compound, the “Fe concentration in tomato leaves” value ([1]; BIOX-A 5.52 lb/acre) was 90 ppm, the “K concentration in tomato leaves” value ([1]; BIOX-A 5.52 lb/acre) was 2.1% and the “Mg concentration in tomato leaves” value ([1]; BIOX-A 5.52 lb/acre) was 0.1%. The “Mn concentration in tomato leaves” value ([1]; BIOX-A 5.52 lb/acre) was 53 ppm, the “N concentration in tomato leaves” value ([1]; BIOX-A 5.52 lb/acre) was 2.7% and the “P concentration in tomato leaves” value ([1]; BIOX-A 5.52 lb/acre) was 0.5%. The “B concentration in tomato leaves” value ([1]; BIOX-A 8.28 lb/acre) was 25 ppm, the “Ca concentration in tomato leaves” value ([1]; BIOX-A 8.28 lb/acre) was 0.5% and the “Cu concentration in tomato leaves” value ([1]; BIOX-A 8.28 lb/acre) was 25 ppm. The “Fe concentration in tomato leaves” value ([1]; BIOX-A 8.28 lb/acre) was 9 ppm, the “K concentration in tomato leaves” value ([1]; BIOX-A 8.28 lb/acre) was 0.9% and the “Mg concentration in tomato leaves” value ([1]; BIOX-A 8.28 lb/acre) was 0.1%. The “Mn concentration in tomato leaves” value ([1]; BIOX-A 8.28 lb/acre) was 57 ppm, the “N concentration in tomato leaves” value ([1]; BIOX-A 8.28 lb/acre) was 1.7% and the “P concentration in tomato leaves” value ([1]; BIOX-A 8.28 lb/acre) was 0.6%. For the same compound, the “Effect on foliar concentration of N, P, K, Mg, Ca, B, Mn, Fe and Zn relative to the control” value ([1]; BIOX-A, all applied concentrations, P>0.05) was “None of the applied concentrations of BIOX-A had a significant effect”, the “Marketable and unmarketable yields (in words)” value ([2]; 1.37 lb/acre or less of BIOX-A) was “statistically similar” and the Marketable yield ([2]; BIOX-A 0.69 lb/acre) was 2.3 lb/plant. The Marketable yield ([2]; BIOX-A 1.37 lb/acre) was 2.4 lb/plant, the Marketable yield ([2]; BIOX-A 2.86 lb/acre) was 1.1 lb/plant and the Marketable yield ([2]; BIOX-A 5.52 lb/acre) was 0 lb/plant. For the same compound, the Marketable yield ([2]; BIOX-A 8.28 lb/acre) was 0 lb/plant, the “Non-marketable tomato yields compared with control (in words)” value ([2]; BIOX-A at concentrations of 2.86 or higher) was “significantly higher non-marketable tomato yields than control” and the “Marketable tomato yields (in words)” value ([2]; BIOX-A at concentrations of 2.86 or higher, P<0.05) was “significantly decreased”. For the same compound, the “Plant injury (in words)” value [3] was “severely injured tomato plants”.
